Holding throughout (format): cell-based
One test addresses T1, D2 dopamine receptor (Homo sapiens, UniProt P14416).
T1 construct: expressed in transfected cells
Description: Ca2+ flux functional assay at D2. The settings on record: for Emax: agonist, Ca2+ flux, max dose, read-out: D2 % Act @ Max Dose; for maximal efficacy at D2: compared to the N-methyl compound LSD. As to the method: (§1) Disclosed compounds were tested for agonist activity at several adrenergic (Alpha1A and Alpha2A) and dopamine (D1 and D2) receptor subtypes using Ca^2+ flux functional assays, with the results summarized in Table 6. Selectivity for the 5-HT2A receptor over these other targets varied depending on the specific target and compound.
(§2) Functional Assays at Adrenergic and Dopamine Receptors. Agonist activity at Alpha1A, Alpha2A, D1, and D2 receptors was determined using a FLIPR Ca^2+ flux assay at WuXi AppTec (Hong Kong) Limited according to their standard protocols. Briefly, stably transfected cells expressing the receptor of interest were grown and plated in a 384 well plate and incubated at 37° C. and 5% CO2 overnight. A solution of 250 mM probenecid in 1 mL FLIPR assay buffer was prepared fresh. This was combined with a fluorescent dye (Fluo-4 Direct™) to make a final assay concentration of 2.5 mM. Compounds were diluted 1:3.16 for 10 points and 750 nL was added to a 384 well compound plate using ECHO along with 30 μL assay buffer. The fluorescent dye was then added to the assay plate along with assay buffer to a final volume of 40 μL. The cell plate was incubated for 50 min at 37° C. and 5% CO2 and placed into the FLIPR Tetra along with the compound plate. 10 μL of references and compounds were then transferred from the compound plate into the cell plate and the fluorescent signal was read.

Test [1] deals with T2, Alpha2A adrenergic receptor (Homo sapiens, UniProt P08913).
T2 construct: expressed in transfected cells
T2 sequence (P08913 1-465): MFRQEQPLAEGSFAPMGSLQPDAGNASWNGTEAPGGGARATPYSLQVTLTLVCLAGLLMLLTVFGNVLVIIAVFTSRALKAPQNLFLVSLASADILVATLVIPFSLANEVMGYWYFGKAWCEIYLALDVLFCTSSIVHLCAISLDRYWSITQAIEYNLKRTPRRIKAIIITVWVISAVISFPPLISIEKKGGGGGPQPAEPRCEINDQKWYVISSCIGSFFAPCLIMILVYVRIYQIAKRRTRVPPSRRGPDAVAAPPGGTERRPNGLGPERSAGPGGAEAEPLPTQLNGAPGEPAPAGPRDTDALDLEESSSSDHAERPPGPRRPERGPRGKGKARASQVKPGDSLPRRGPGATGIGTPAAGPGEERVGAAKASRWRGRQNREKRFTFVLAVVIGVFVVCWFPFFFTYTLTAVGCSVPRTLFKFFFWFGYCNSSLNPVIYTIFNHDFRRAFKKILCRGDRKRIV
Description: Ca2+ flux functional assay at Alpha2A. The settings on record: for maximal efficacy at Alpha2A: "higher" is compared to the N-methyl compound LSD; for Emax: agonist, Ca2+ flux, max dose, read-out: Alpha 2A % Act @ Max Dose. As to the method:
as §2, with “Compounds were diluted 1:3.16 for 10 points and 750 nL was added to a 384 well compound plate using ECHO along with 30 μL assay buffer.” left out

In test [2] the target is T3, Alpha1A adrenergic receptor (Homo sapiens, UniProt P35348).
T3 construct: expressed in transfected cells
T3 sequence (P35348 1-466): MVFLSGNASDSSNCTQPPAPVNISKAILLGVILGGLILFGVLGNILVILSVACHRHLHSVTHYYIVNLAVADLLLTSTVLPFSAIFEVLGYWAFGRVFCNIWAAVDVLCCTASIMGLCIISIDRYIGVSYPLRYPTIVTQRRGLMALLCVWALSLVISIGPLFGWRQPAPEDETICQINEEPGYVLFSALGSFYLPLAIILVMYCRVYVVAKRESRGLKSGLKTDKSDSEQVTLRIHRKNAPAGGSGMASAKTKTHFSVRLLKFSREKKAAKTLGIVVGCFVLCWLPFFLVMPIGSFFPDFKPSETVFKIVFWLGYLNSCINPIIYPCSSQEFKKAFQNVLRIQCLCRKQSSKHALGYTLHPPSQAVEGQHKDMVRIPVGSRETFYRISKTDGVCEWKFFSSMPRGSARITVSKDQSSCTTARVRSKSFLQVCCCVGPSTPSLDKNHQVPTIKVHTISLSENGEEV
The test can be described thus: Ca2+ flux functional assay at Alpha1A. The following applies: for maximal efficacy at Alpha1A: "higher" is compared to the N-methyl compound LSD; for Emax: agonist, Ca2+ flux, max dose, read-out: Alpha 1A % Act @ Max Dose. As for the experimental part: as §1, §2

Another test has as its target T4, D1 dopamine receptor (Homo sapiens, UniProt P21728).
T4 construct: expressed in transfected cells
The test can be described thus: Ca2+ flux functional assay at D1. The settings on record: agonist, max dose, read-out: D1 % Act @ Max Dose. As to the method: as §1, §2

SMILES strings stand for the structures.

T1 sequence (P14416 whole entry): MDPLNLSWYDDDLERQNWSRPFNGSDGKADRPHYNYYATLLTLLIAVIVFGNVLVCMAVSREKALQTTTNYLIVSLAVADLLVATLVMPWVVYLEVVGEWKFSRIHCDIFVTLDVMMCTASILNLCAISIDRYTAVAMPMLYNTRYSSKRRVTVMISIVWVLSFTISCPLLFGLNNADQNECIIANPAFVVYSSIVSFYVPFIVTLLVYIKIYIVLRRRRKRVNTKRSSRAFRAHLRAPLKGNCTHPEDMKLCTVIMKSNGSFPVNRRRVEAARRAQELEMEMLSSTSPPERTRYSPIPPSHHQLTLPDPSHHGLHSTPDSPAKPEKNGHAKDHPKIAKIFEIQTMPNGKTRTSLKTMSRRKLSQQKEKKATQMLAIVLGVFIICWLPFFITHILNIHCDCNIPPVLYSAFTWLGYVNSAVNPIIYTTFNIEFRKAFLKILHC
T4 sequence (P21728 whole entry): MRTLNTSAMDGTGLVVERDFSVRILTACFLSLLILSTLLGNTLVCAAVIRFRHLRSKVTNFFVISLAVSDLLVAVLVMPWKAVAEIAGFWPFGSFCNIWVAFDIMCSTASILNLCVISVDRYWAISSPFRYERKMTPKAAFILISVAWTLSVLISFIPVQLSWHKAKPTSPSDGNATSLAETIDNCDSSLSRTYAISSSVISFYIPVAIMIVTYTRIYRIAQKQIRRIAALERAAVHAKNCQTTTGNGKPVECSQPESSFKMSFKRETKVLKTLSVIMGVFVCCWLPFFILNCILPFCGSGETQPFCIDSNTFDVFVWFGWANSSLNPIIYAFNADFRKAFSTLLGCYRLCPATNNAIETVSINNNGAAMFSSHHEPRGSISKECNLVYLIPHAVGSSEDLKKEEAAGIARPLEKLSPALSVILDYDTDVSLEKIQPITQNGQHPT

Regarding `CCCN1C[C@H](C(=O)N2[C@@H](C)C[C@@H]2C)C=C2c3cccc4[nH]cc(c34)C[C@H]21` [Compound 4, ((2S,4S)-2,4-dimethylazetidin-1-yl)((6aR,9R)-7-propyl-4,6,6a,7,8,9-hexahydroindolo[4,3-fg]quinolin-9-yl)methanone], at D2 dopamine receptor, the Emax is 117% and the “maximal efficacy at D2” value is given as “substantially higher maximal efficacy”. In test [1], the “maximal efficacy at Alpha2A” value is “substantially higher maximal efficacy” and the Emax turned out to be 103%. Moreover, in test [2], the “maximal efficacy at Alpha1A” value is “substantially higher maximal efficacy” and the Emax is 119%. The Emax at D1 dopamine receptor came out at 114%.
For the compound `CCN(CC)C(=O)[C@@H]1C=C2c3cccc4[nH]cc(c34)C[C@H]2N(CCc2ccccc2OC)C1` [Compound 11, (6aR,9R)—N,N-diethyl-7-(2-methoxyphenethyl)-4,6,6,7,8,9-hexahydroindolo[4,3-fg]quinoline-9-carboxamide], the “maximal efficacy at Alpha2A” value in test [1] is reported as “very low efficacy agonists”. Also, the “maximal efficacy at Alpha1A” value in test [2] is “very low efficacy agonists”.
Consider `CCCN1C[C@H](C(=O)NC(CC)CC)C=C2c3cccc4[nH]cc(c34)C[C@H]21` [Compound 6, (6aR,9R)—N-(pentan-3-yl)-7-propyl-4,6,6a,7,8,9-hexahydroindolo[4,3-fg]quinoline-9-carboxamide], for which the Emax at D2 dopamine receptor is 91.7%; on D1 dopamine receptor, 93.1%. At D2 dopamine receptor, the “maximal efficacy at D2” value is on record as “substantially higher maximal efficacy”. For the same compound, in test [1], the “maximal efficacy at Alpha2A” value is listed as “substantially higher maximal efficacy”. For the same compound, the “maximal efficacy at Alpha1A” value in test [2] is listed as “substantially higher maximal efficacy”.
With `CCN(CC)C(=O)[C@@H]1C=C2c3cccc4[nH]cc(c34)C[C@H]2N(C)C1` [LSD, lysergic acid diethylamide, reference compound], the Emax came out at 78.3% on D2 dopamine receptor, 60.3% in test [2] and 94.9% at D1 dopamine receptor.
Turning to `CCN(CC)C(=O)[C@@H]1C=C2c3cccc4[nH]cc(c34)C[C@H]2N(CCCF)C1` [Compound 2, (6aR,9R)—N,N-diethyl-7-(3-fluoropropyl)-4,6,6a,7,8,9-hexahydroindolo[4,3-fg]quinoline-9-carboxamide], on D2 dopamine receptor, the Emax turned out to be 91.2% and the “maximal efficacy at D2” value is given as “substantially higher maximal efficacy”. Moreover, in test [1], the “maximal efficacy at Alpha2A” value was “substantially higher maximal efficacy” and the Emax worked out at 65%. In test [2], the “maximal efficacy at Alpha1A” value was “substantially higher maximal efficacy” and the Emax amounted to 110%. Moreover, the Emax at D1 dopamine receptor amounted to 114%.
As to `CCCN1C[C@H](C(=O)N[C@H](C)CC)C=C2c3cccc4[nH]cc(c34)C[C@H]21` [Compound 3, (6aR,9R)—N—((R)-sec-butyl)-7-propyl-4,6,6a,7,8,9-hexahydroindolo[4,3-fg]quinoline-9-carboxamide], at D2 dopamine receptor, the Emax came to 117% and the “maximal efficacy at D2” value was “substantially higher maximal efficacy”. In addition, in test [1], the “maximal efficacy at Alpha2A” value was “substantially higher maximal efficacy” and the Emax was found to be 96.8%. For the same compound, in test [2], the “maximal efficacy at Alpha1A” value is on record as “substantially higher maximal efficacy” and the Emax is 125%. In addition, the Emax at D1 dopamine receptor is 121%.
Turning to `CCN(CC)C(=O)[C@@H]1C=C2c3cccc4[nH]cc(c34)C[C@H]2N(Cc2ccccc2OC)C1` [Compound 10, (6aR,9R)—N,N-diethyl-7-(2-methoxybenzyl)-4,6,6a,7,8,9-hexahydroindolo[4,3-fg]quinoline-9-carboxamide], the Emax on D2 dopamine receptor worked out at 86.9%; in test [1], 36.5%; in test [2], 26.6%; on D1 dopamine receptor, 114%. Besides, the “maximal efficacy at Alpha2A” value in test [1] is given as “very low efficacy agonists”. Besides, in test [2], the “maximal efficacy at Alpha1A” value is reported as “very low efficacy agonists”.
With `CCCN1C[C@H](C(=O)N(CC)CC)C=C2c3cccc4[nH]cc(c34)C[C@H]21` [Compound 1, (6aR,9R)—N,N-diethyl-7-propyl-4,6,6a,7,8,9-hexahydroindolo[4,3-fg]quinoline-9-carboxamide], the Emax was found to be 94.5% on D2 dopamine receptor, 58.3% in test [1], 80.6% in test [2] and 109% on D1 dopamine receptor. Moreover, on D2 dopamine receptor, the “maximal efficacy at D2” value was “substantially higher maximal efficacy”. Also, in test [1], the “maximal efficacy at Alpha2A” value is listed as “substantially higher maximal efficacy”. Also, in test [2], the “maximal efficacy at Alpha1A” value is listed as “substantially higher maximal efficacy”.
